Experimental data published in ChEMBL document CHEMBL5257022, “An integrated overview on pyrrolizines as potential anti-inflammatory, analgesic and antipyretic agents” (Eur J Med Chem, 2016).
Values belong to the molecule of their own block, whether it stands above or below them.

How the values were obtained:
[1] = tested on: Rattus norvegicus; assay: Antiinflammatory activity in rat assessed as inhibition of paw edema; assay type: functional
[2] = tested on: Rattus norvegicus; assay: Antiinflammatory activity in rat assessed as fold change in inhibition of paw edema relative to phenylbutazone; assay type: functional
[3] = organism: Mus musculus; assay: Analgesic activity in mouse assessed as inhibition of acetic acid-induced writhing response relative to aspirin; assay type: functional
[4] = biological target: Prostaglandin G/H synthase 1 (Homo sapiens, UniProt P23219); assay: Inhibition of COX1 (unknown origin)
[5] = biological target: T1, Prostaglandin G/H synthase 2 (Homo sapiens, UniProt P35354); assay: Inhibition of COX2 (unknown origin)
T1 sequence (P35354 whole entry): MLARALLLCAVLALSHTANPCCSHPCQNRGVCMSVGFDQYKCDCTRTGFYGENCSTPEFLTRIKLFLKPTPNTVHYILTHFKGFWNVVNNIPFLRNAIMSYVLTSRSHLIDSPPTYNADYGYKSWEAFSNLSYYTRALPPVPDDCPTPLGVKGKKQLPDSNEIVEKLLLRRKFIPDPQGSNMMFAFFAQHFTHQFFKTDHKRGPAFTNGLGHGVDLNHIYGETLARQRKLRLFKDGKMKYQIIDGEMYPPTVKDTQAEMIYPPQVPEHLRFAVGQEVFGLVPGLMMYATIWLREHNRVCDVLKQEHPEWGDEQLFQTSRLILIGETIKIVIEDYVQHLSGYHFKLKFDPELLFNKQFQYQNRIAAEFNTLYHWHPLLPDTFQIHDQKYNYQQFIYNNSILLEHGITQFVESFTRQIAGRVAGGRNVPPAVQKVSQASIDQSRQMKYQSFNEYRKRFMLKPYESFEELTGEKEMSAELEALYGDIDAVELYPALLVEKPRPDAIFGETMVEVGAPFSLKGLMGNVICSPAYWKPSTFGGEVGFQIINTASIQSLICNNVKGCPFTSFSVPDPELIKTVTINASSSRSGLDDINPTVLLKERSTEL

[6] = biological target: T2, Prostaglandin G/H synthase 1 (Ovis aries) (UniProt P05979); assay: Inhibition of COX1 in ovine thrombocyte at 10 uM relative to control
T2 sequence (whole entry): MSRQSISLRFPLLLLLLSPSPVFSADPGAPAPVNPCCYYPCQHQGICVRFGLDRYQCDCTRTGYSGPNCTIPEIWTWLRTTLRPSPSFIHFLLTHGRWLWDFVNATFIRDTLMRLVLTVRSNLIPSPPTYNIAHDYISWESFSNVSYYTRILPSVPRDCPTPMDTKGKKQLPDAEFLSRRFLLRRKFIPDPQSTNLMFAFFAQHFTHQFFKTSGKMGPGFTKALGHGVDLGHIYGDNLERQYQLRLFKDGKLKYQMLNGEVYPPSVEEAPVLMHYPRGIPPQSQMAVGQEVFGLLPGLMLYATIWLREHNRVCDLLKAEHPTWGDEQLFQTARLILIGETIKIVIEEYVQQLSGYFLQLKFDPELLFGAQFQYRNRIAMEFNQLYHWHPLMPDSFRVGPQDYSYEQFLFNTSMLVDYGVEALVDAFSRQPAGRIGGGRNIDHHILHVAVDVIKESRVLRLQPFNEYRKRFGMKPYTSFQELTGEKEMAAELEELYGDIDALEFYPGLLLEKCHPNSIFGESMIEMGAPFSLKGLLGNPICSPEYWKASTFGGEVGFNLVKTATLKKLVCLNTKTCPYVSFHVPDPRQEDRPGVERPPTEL

[7] = biological target: T3, Polyunsaturated fatty acid 5-lipoxygenase (Homo sapiens) (UniProt P09917); assay: Inhibition of 5-LOX in human PMNL at 10 uM relative to control; assay type: cell-based
T3 sequence (whole entry): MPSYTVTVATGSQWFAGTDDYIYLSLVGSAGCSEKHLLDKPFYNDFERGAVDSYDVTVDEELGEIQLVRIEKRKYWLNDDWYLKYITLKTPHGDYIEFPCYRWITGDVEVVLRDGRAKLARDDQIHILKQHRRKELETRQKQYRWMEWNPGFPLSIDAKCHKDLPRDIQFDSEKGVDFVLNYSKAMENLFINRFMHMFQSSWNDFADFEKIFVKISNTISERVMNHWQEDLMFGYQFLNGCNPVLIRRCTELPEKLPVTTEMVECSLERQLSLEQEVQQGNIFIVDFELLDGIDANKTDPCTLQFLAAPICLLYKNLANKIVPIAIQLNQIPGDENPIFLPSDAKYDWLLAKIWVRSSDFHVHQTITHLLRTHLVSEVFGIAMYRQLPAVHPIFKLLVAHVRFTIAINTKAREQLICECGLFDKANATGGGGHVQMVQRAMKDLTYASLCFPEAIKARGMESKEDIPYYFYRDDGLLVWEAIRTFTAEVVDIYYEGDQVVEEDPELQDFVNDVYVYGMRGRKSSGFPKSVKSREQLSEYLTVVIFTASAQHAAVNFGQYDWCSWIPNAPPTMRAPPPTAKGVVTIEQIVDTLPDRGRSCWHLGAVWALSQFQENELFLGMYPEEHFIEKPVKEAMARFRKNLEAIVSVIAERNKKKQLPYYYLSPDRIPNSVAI

Sequence of Prostaglandin G/H synthase 1 (P23219 whole entry): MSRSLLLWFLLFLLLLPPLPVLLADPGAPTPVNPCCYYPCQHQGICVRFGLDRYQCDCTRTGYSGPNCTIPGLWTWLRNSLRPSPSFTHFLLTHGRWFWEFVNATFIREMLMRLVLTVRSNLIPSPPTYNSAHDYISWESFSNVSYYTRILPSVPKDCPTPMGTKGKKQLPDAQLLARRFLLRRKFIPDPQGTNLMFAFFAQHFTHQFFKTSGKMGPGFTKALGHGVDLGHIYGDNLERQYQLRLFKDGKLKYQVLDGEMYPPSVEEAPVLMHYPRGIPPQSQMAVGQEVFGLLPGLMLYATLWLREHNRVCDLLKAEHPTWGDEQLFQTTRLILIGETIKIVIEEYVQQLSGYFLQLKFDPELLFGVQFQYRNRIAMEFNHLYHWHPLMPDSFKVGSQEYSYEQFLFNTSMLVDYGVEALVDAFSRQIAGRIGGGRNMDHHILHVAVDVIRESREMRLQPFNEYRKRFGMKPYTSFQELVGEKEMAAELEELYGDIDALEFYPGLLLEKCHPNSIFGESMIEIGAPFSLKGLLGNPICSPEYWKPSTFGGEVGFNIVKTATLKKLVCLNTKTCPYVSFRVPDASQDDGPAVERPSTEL

SMILES: CC(=O)Nc1c(C#N)c2n(c1C(=O)Nc1ccccc1C)CCC2
- inhibition (INH) [1]: 23.2%

SMILES: O=C(c1ccccc1)c1ccc2n1CCCCC2C(=O)O (stereo unspecified)
- fold change (FC) [2]: -0.4
- fold change (FC) [3]: -3

SMILES: CSc1ccc(C(=O)c2ccc3n2CCCC3C(=O)O)cc1 (stereo unspecified)
- fold change (FC) [2]: -1
- fold change (FC) [3]: 3

- IC50 [4]: 60 nM
SMILES: CC1(C)Cc2c(-c3ccccc3)c(-c3ccsc3)c(CC(=O)O)n2C1

- IC50 [4]: 5500 nM
SMILES: O=C(O)/C=C/c1c(-c2ccc(SCc3ccccc3)cc2)c(-c2ccccc2)c2n1CCC2

SMILES: C[S+]([O-])c1ccc(C(=O)c2ccc3n2CCCC3C(=O)O)cc1 (stereo unspecified)
- fold change (FC) [2]: <0.2
- fold change (FC) [3]: -0.5

- IC50 [4]: 700 nM
- IC50 [5]: 5 nM
SMILES: Cc1ccc(-c2c(-c3ccc(S(C)(=O)=O)cc3)cn3c2CCC3)cc1

SMILES: O=C(c1ccccc1)c1ccc2n1CC(C(=O)O)C2 (stereo unspecified)
- fold change (FC) [2]: <1
- fold change (FC) [3]: -4

- IP [6]: 12%
SMILES: O=C(O)/C=C/c1c(-c2ccc([S+]([O-])c3ccccc3)cc2)c(-c2ccccc2)c2n1CCC2 (stereo unspecified)

- IP [6]: 12%
SMILES: O=C(O)/C=C/c1c(-c2ccc(Nc3ccc(Cl)cc3)cc2)c(-c2ccccc2)c2n1CCC2

SMILES: O=C(c1cccc(Cl)c1)c1ccc2n1CCCC2C(=O)O (stereo unspecified)
- fold change (FC) [2]: 8
- fold change (FC) [3]: -9

SMILES: O=C(Cc1ccccc1)c1ccc2n1CCC2C(=O)O (stereo unspecified)
- fold change (FC) [2]: 3
- fold change (FC) [3]: 14

- IC50 [4]: 3900 nM
- IP [7]: 0%
SMILES: Clc1ccc(-c2cn3c(c2-c2ccccc2)CCC3)s1

SMILES: Cc1ccccc1NC(=O)c1c(NC(=O)CCl)c(C#N)c2n1CCC2
- inhibition (INH) [1]: 20.3%

SMILES: O=C(c1ccc2n1CCC2C(=O)O)C1CCC1 (stereo unspecified)
- fold change (FC) [2]: -1.5
- fold change (FC) [3]: 30

- IP [6]: 35%
SMILES: O=C(O)/C=C/c1c(-c2ccc(-c3ccccc3)cc2)c(-c2ccccc2)c2n1CCC2

- IP [6]: 40%
SMILES: O=C(O)/C=C/c1c(-c2ccc(Sc3ccccc3)cc2)c(-c2ccccc2)c2n1CCC2

SMILES: N#Cc1c(NC(=O)CCl)c(C(=O)Nc2ccccc2Cl)n2c1CCC2
- inhibition (INH) [1]: 22.2%

SMILES: Cc1ccccc1NC(=O)c1c(NC(=O)CN2CCOCC2)c(C#N)c2n1CCC2
- inhibition (INH) [1]: 3.9%

- IC50 [5]: 7500 nM
SMILES: COC1c2c(-c3ccccc3)c(-c3ccc(Cl)cc3)c(C)n2CC1(C)C (stereo unspecified)

- IC50 [4]: 20 nM
SMILES: CC1(C)Cc2c(-c3ccccc3)c(-c3occ4ccccc34)c(CC(=O)O)n2C1

SMILES: Cc1ccc(C(=O)c2ccc3n2CCCC3C(=O)O)cc1 (stereo unspecified)
- fold change (FC) [2]: <1
- fold change (FC) [3]: <0.5

SMILES: CC(C)(C)C(=O)c1ccc2n1CCC2C(=O)O (stereo unspecified)
- fold change (FC) [2]: 1
- fold change (FC) [3]: -10

SMILES: O=C(c1ccc(F)cc1)c1ccc2n1CCCCC2C(=O)O (stereo unspecified)
- fold change (FC) [2]: <1
- fold change (FC) [3]: <1.3

SMILES: O=C(c1ccccc1)c1ccc2n1CCCC2C(=O)O (stereo unspecified)
- fold change (FC) [2]: <1
- fold change (FC) [3]: 9

- IP [6]: 28%
SMILES: O=C(O)/C=C/c1c(-c2ccc(Cc3ccccc3)cc2)c(-c2ccccc2)c2n1CCC2

SMILES: CS(=O)(=O)c1ccc(C(=O)c2ccc3n2CCCC3C(=O)O)cc1 (stereo unspecified)
- fold change (FC) [2]: 3
- fold change (FC) [3]: <1

- IP [6]: 0%
SMILES: O=C(O)/C=C/c1c(-c2ccc(O)cc2)c(-c2ccccc2)c2n1CCC2

SMILES: Cc1ccc(C(=O)c2ccc3n2CCC3C(=O)O)cc1 (stereo unspecified)
- fold change (FC) [2]: 39
- fold change (FC) [3]: 165

SMILES: COc1ccc(C(=O)c2ccc3n2CCC3C(=O)O)cc1 (stereo unspecified) [ANIROLAC]
- fold change (FC) [2]: 83
- fold change (FC) [3]: 117

SMILES: O=C(c1ccc(Cl)cc1)c1c(Cl)cc2n1CCC2C(=O)O (stereo unspecified)
- fold change (FC) [2]: 88
- fold change (FC) [3]: 167

SMILES: O=C(c1ccc(Cl)cc1)c1ccc2n1CC(C(=O)O)C2 (stereo unspecified)
- fold change (FC) [2]: <0.3
- fold change (FC) [3]: <10

SMILES: Cc1ccccc1NC(=O)c1c(NC(=O)CCCl)c(C#N)c2n1CCC2
- inhibition (INH) [1]: 17.5%

- IP [6]: 45%
SMILES: O=C(O)/C=C/c1c(-c2ccc(Nc3cccc(C(F)(F)F)c3)cc2)c(-c2ccccc2)c2n1CCC2

- IC50 [4]: 130 nM
SMILES: CC1(C)Cc2c(-c3ccccc3)c(-c3ccco3)c(CC(=O)O)n2C1

- IP [6]: 18%
SMILES: O=C(O)/C=C/c1c(-c2ccc([S+]([O-])Cc3ccccc3)cc2)c(-c2ccccc2)c2n1CCC2 (stereo unspecified)

SMILES: N#Cc1c(NC(=O)CCN2CCOCC2)c(C(=O)Nc2ccccc2Cl)n2c1CCC2
- inhibition (INH) [1]: 5.7%

SMILES: O=C(c1ccc(F)cc1)c1ccc2n1CCC2C(=O)O (stereo unspecified)
- fold change (FC) [2]: 61
- fold change (FC) [3]: 183

SMILES: N#Cc1c(NC(=O)CCCl)c(C(=O)Nc2ccccc2Cl)n2c1CCC2
- inhibition (INH) [1]: 18%

SMILES: CC(=O)Nc1c(C#N)c2n(c1C(=O)Nc1ccccc1Cl)CCC2
- inhibition (INH) [1]: 23.9%

- IC50 [4]: 30 nM
- IP [7]: 0%
- IC50 [5]: 900 nM
SMILES: CSc1ccc(-c2cn3c(c2-c2ccc(C)cc2)CCC3)cc1

- IP [6]: 17%
SMILES: O=C(O)/C=C/c1c(-c2ccccc2)c(-c2ccccc2)c2n1CCC2

- IP [6]: 0%
SMILES: O=C(O)/C=C/c1c(-c2ccc(S(=O)(=O)c3ccccc3)cc2)c(-c2ccccc2)c2n1CCC2

SMILES: N#Cc1ccc(C(=O)c2ccc3n2CCC3C(=O)O)cc1 (stereo unspecified)
- fold change (FC) [2]: <1
- fold change (FC) [3]: 6

- IC50 [4]: 210 nM
SMILES: CC1(C)Cc2c(-c3ccccc3)c(-c3ccc(Cl)s3)c(CC(=O)O)n2C1

SMILES: O=C(c1ccc(Cl)cc1)c1ccc2n1CCCC2C(=O)O (stereo unspecified)
- fold change (FC) [2]: <=0.6
- fold change (FC) [3]: <1

SMILES: Cc1ccccc1NC(=O)c1c(NC(=O)CCN2CCOCC2)c(C#N)c2n1CCC2
- inhibition (INH) [1]: 3.2%

- IC50 [4]: 950 nM
SMILES: Cc1c(-c2ccc(Cl)cc2)c(-c2ccccc2)c2n1CC(C)(C)C2=O

- IC50 [4]: 1100 nM
- IP [7]: 0%
- IC50 [5]: 1000 nM
SMILES: CSc1ccc(-c2cn3c(c2-c2ccccc2)CCC3)cc1

SMILES: CSc1ccc(C(=O)c2ccc3n2CCCCC3C(=O)O)cc1 (stereo unspecified)
- fold change (FC) [2]: <0.2
- fold change (FC) [3]: -6

- IP [6]: 0%
SMILES: O=C(O)/C=C/c1c(-c2ccc(S(=O)(=O)Cc3ccccc3)cc2)c(-c2ccccc2)c2n1CCC2

- IP [6]: 45%
SMILES: O=C(O)/C=C/c1c(-c2ccc(Nc3ccccc3)cc2)c(-c2ccccc2)c2n1CCC2

SMILES: N#Cc1c(NC(=O)CN2CCOCC2)c(C(=O)Nc2ccccc2Cl)n2c1CCC2
- inhibition (INH) [1]: 7.1%

- IC50 [4]: 4300 nM
- IP [7]: 0%
- IC50 [5]: 160 nM
SMILES: CS(=O)(=O)c1ccc(-c2cn3c(c2-c2ccc(F)cc2)CCC3)cc1

- IC50 [5]: 2100 nM
SMILES: CC1(C)Cn2c(CC(=O)O)c(-c3ccc(Cl)cc3)c(-c3ccccc3)c2C1=O

SMILES: O=C(c1ccc(F)cc1)c1ccc2n1CCCC2C(=O)O (stereo unspecified)
- fold change (FC) [2]: <1
- fold change (FC) [3]: <10

- IP [6]: 31%
SMILES: Nc1ccc(-c2c(-c3ccccc3)c3n(c2/C=C/C(=O)O)CCC3)cc1

- IC50 [4]: 8200 nM
- IP [7]: 0%
- IC50 [5]: 8 nM
SMILES: CS(=O)(=O)c1ccc(-c2cn3c(c2-c2ccc(Cl)cc2)CCC3)cc1

SMILES: COc1ccc(C(=O)c2ccc3n2CCCC3C(=O)O)cc1 (stereo unspecified)
- fold change (FC) [2]: <1.6
- fold change (FC) [3]: 1.5
